Where a SMILES comes first, the peptide text is derived from it. [ ]: non-standard residue; d: D form. The star is where a group is joined. ξ: configuration not given here. FITC = O=C1OC2(c3ccc(O)cc3Oc3cc(O)ccc32)c2ccc(NC(=S)*)cc21; Phe(4-NO2) = N[C@@H](Cc1ccc([N+](=O)[O-])cc1)C(=O)O; ξAla(4-thiazolyl) = NC(Cc1cscn1)C(=O)O; pS = N[C@@H](COP(=O)(O)O)C(=O)O; β3hS = N[C@@H](CO)CC(=O)O; Nva = CCC[C@H](N)C(=O)O; ξβ3hS = NC(CO)CC(=O)O; βAla = NCCC(=O)O
Assays:
14-3-3γ/ChREBP = molecular target: T1, 14-3-3γ/ChREBP (Homo sapiens, UniProt P61981+Q9NP71); assay: FA ChREBP titration to FITC-labelled peptide with or without 14-3-3 (ternary complex formation); type: binding; conditions: for ternary complex formation (anisotropy) on ChREBP titration in presence of 14-3-3γ: ChREBP titrated to preformed complex of 14-3-3γ and FITC-labelled peptide, Fig. 5d
T1 construct: made in house; host or cells: E. coli NiCo21 (DE3) for 14-3-3 gamma; ChREBP is a synthetic peptide
T1 sequence (P61981 1-247): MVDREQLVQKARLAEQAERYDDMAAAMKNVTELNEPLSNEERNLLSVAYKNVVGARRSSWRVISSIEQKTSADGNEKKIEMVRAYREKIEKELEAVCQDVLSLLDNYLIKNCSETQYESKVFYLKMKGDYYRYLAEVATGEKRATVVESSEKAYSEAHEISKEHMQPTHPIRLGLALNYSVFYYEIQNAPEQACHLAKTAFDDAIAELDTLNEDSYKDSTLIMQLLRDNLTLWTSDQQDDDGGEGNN
T1 sequence (Q9NP71 118-142 partner limits assumed): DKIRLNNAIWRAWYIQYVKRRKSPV
Procedure: performed twice per cycle with 20% v/v piperidine in N,N-dimethylformamide (DMF) for five minutes.
Fmoc-protected amino acids were mixed with 9 equivalents HBTU (0.38 M in DMF) and 15 equivalents of DIPEA, and coupled to the resin for 30 minutes (except pS, which is coupled for 60 minutes).
Peptides 1 and 2e-i were labeled with fluorescein via a 5-(-fluorenylmehyloxycarbonyl-amino)-3-oxapentanoic acid (O1-Pen) linker using 5 equivalents of FITC and 7.5 equivalents of DIPEA reacting overnight with continuous agitation. Removal of protecting groups and cleavage of the resin was performed by incubation in a mixture of trifluoroacetic acid (TFA), H2O, and triisopropylsilane (TIS) (96.5:2.5:1) for 2 hours with continuous agitation, followed by precipitation in an excess of ice-cold […]
Peptides 1 and 2a-d were FITC labeled via a three-step approach. The free amine on the N-terminus was protected as follows: to a solution of di-tert-butyl decarbonate (10 eq, 400 mM) in DCM was added DIEA (10 eq), and solution was added to the resin. Coupling was allowed to proceed for 1 h. At this time, resin was washed 3x with DCM and coupling was repeated as described. […]
All peptides were purified using preparative HP-LC. […] The purity of the samples was assessed using a UV detector at 254 […]
Fluorescence anisotropy (FA) - binary binding studies: 14-3-3γ was titrated in a 2-fold dilution series (starting at 100 or 400 µM 14-3-3γ) to 10 nM of fluorescein-labeled peptide in FA buffer (10 mM HEPES pH 7.4, 150 mM NaCl, 0.1% (v/v) Tween20, 0.1% (w/v) BSA). […]
Measurements were performed directly after plate preparation, using a Tecan Infinite F500 plate reader at room temperature (lex: 485 ± 20 nm; lem: 535 ± 25 nm; mirror: Dichroic 510; flashes: 20; integration time: 50 ms; settle time: 0 ms; gain: optimal; and Z-position: calculated from well). […] All data were analyzed using GraphPad Prism (7.00) for Windows and fitted using a four-parameter logistic model (4PL). Each measurement was performed in three independent experiments, average and standard deviations were calculated in Excel […]

14-3-3 = conditions: hits of a 10^8-membered synthetic non-canonical phosphopeptide library; read-out: affinity for 14-3-3; cited from earlier work
From the text: We selected peptide 14-3-3.12, herein termed peptide 1, from the top hits for functional mapping. […] Further, the peptide completely occupies the 14-3-3 binding groove, thus allowing to explore both sides flanking 14-3-3's central phospho-accommodating pocket.

Structure (SMILES)	ternary complex formation (anisotropy) on ChREBP titration in presence of 14-3-3γ (14-3-3γ/ChREBP)	increase in anisotropy on ChREBP titration to FITC-labelled peptide alone (14-3-3γ/ChREBP; no 14-3-3 present, Fig. 5e)	Kd (14-3-3)
C[C@H](NC(=O)[C@H](CCCCN)NC(=O)[C@H](Cc1ccc([N+](=O)[O-])cc1)NC(=O)CCNC(=O)C[C@H](CO)NC(=O)[C@H](Cc1ccc([N+](=O)[O-])cc1)NC(=O)[C@H](COP(=O)(O)O)NC(=O)C(N)Cc1cscn1)C(=O)N[C@@H](CCCCNC(=S)Nc1ccc2c(c1)C(=O)OC21c2ccc(O)cc2Oc2cc(O)ccc21)C(N)=O (stereo partly drawn) [2c] (H-[ξAla(4-thiazolyl)][pS][Phe(4-NO2)][β3hS][βAla][Phe(4-NO2)]KAK(FITC)-NH2)	lack of increase in anisotropy values	–	–
C[C@H](NC(=O)[C@H](CCCCN)NC(=O)[C@H](Cc1ccc([N+](=O)[O-])cc1)NC(=O)CCNC(=O)C[C@H](CO)NC(=O)[C@H](Cc1ccc([N+](=O)[O-])cc1)NC(=O)[C@@H](N)COP(=O)(O)O)C(=O)N[C@@H](CCCCNC(=S)Nc1ccc2c(c1)C(=O)OC21c2ccc(O)cc2Oc2cc(O)ccc21)C(N)=O [2d] (H-[pS][Phe(4-NO2)][β3hS][βAla][Phe(4-NO2)]KAK(FITC)-NH2)	dose-dependent increase in 14-3-3/ChREBP/2d complex formation	not observed	–
CCC[C@H](NC(=O)[C@H](N)CCCCN)C(=O)N[C@@H](Cc1ccc([N+](=O)[O-])cc1)C(=O)NC(Cc1cscn1)C(=O)N[C@@H](COP(=O)(O)O)C(=O)N[C@@H](Cc1ccc([N+](=O)[O-])cc1)C(=O)NC(CO)CC(=O)NCCC(=O)N[C@@H](Cc1ccc([N+](=O)[O-])cc1)C(=O)N[C@@H](CCCCN)C(N)=O (stereo partly drawn) [compound 1] (H-[dK][Nva][Phe(4-NO2)][ξAla(4-thiazolyl)][pS][Phe(4-NO2)][ξβ3hS][βAla][Phe(4-NO2)]K-NH2)	–	–	19 nM
